# Measured values: a melting point compilation (Tetko et al.; mined from patent text by program, amines drawn as free bases though some values may be those of a salt)
row,Structure (SMILES),melting point [°C]
1,CN(CCc1ccccc1)C(=O)Cn1cc(C=O)c2c(OCc3ccccc3)cccc21,120 to 122
2,CC(C)Oc1ccc(CCCOc2cc(CCC(=O)O)n(C3CCCCC3)n2)c(Oc2ncc(C(F)(F)F)cc2Cl)c1,114 to 115
3,CCN(C)c1nsc(NC(=O)N(C)C)c1C#N,115 to 130
4,CCC(=O)c1ccc(C(O)C(C)(C)C)cc1 (stereo unspecified),88 to 91
5,COc1ccc2cc([C@H](C)C(=O)OCCNC(=O)OC(C)(C)C)ccc2c1,82 to 84
6,CCOC(=O)c1c(N)c(Cl)cc2c1OCO2,77 to 78
7,C#CCN1CSCC1=O,29 to 31
8,Cc1ccc(C(N)(c2ccc3c(c2)c(-c2cccc(Cl)c2)nc2nnnn23)c2cncn2C)cc1 (stereo unspecified),150
9,CSc1nn2c(N3CCOCC3)cc(C)nc2c1S(=O)(=O)c1ccccc1,206 to 208
10,CC(C)(C)OC(=O)C1CC(c2ccc(N)cc2)CCN1 (stereo unspecified),114 to 116
11,N#CC=C1CCN(c2ccc(N3C[C@@H](Cn4cc(C#N)nn4)OC3=O)cc2F)CC1,78 to 80
12,Cc1cc(C)c(Nc2nc(Nc3ccc(C#N)cc3)ncc2-c2ccccc2)c(C)c1,209 to 214
13,CC(C)(C)NC(=O)[C@@H]1[C@@H](O)CCN1C(=O)OC(C)(C)C,122 to 124
14,O=C(O)c1cc(Cl)c(F)c(Cl)c1F,179
15,CC(=O)SCC(Cc1ccccc1)C(=O)Nc1cccc(C(=O)OCCBr)c1 (stereo unspecified),85 to 88
16,COc1cc(Nc2c(C#N)cnc3cc(/C=C/CCCCCCCCCN4CCOCC4)c(OC)cc23)c(Cl)cc1Cl,98 to 99
17,COc1cc2ncc(OC3CCC(OC)CC3)nc2cc1OC (stereo unspecified),85 to 90
18,Cc1nnc(-c2ccc3occ(-c4ccc(S(=O)Cc5ccccc5C#N)cc4)c3c2)o1 (stereo unspecified),171 to 172
19,CC(=O)c1ccc(S(=O)(=O)N2CCCC(CO)C2)cc1 (stereo unspecified),104 to 106
20,O=C1CCOc2c1ccc1c2OC(CN2CC=C(c3c[nH]c4ccccc34)CC2)CO1 (stereo unspecified),210
21,COCc1ccc2c(c1)C=Cc1cc(C)ccc1C2c1cn(Cc2nc(C(=O)O)cs2)c(=O)[nH]c1=S (stereo unspecified),140
22,CCOC(=O)Cc1c(C(=O)OCC)c(C)cn1CCO,133 to 135
23,CCOC(=O)c1c(CN(CC)CC)nc2sc3c(c2c1-c1ccc(OC)c(OC)c1)CCN(C(C)=O)C3,72 to 75
24,Cc1[nH]c(=O)n(-c2cc(C(=O)OC(C)C)c(Cl)cc2F)c(=O)c1SC#N,159 to 161
25,Cc1noc(NS(=O)(=O)c2ccc(Nc3ccc(N)cc3N)cc2)c1C,181 to 183
26,Oc1cccc2c1Oc1ccccc1C21CCN(CC=CCl)CC1,153 to 155

row,Structure (SMILES),melting point [°C]
1,O=S(=O)(c1ccc(O)cc1)N1CCCC1,122 to 125
2,CCOP(=O)(/C=C/c1cn(-c2ccccc2)nc1OCc1ccc(OCc2nc(-c3ccco3)oc2C)cc1)OCC,131 to 132
3,Cc1cccc(Nc2c(N)cc(C(=O)O)cc2S(N)(=O)=O)c1,280 to 282
4,Cc1nnsc1C(=O)NS(C)(=O)=O,187
5,CCCCCCCCCCCCCC(=O)NN(C)C,63.5 to 64.5
6,O=C(O)c1cccc2c1Cc1c-2[nH]c2ccc(Cl)cc12,> 300
7,CC(C)(C)C1OCC(S)(CCO)CO1 (stereo unspecified),68
8,Clc1ccc(Nc2nncc3ccccc23)cc1,211
9,CC1(C(F)(F)F)NC(c2ncccc2C(=O)O)=NC1=O (stereo unspecified),180 to 184
10,COc1ccccc1N(CCN1CCC(C(=O)c2ccc(F)cc2)CC1)C(=O)c1ccc(C#N)cc1,155 to 158
11,Nc1ncnc2c1cnn2Cc1oc2ccc(Br)cc2c(=O)c1-c1ccccc1,236 to 240
12,O=C(Nc1ccccc1-c1nc2cccnc2o1)c1ccccc1,197 to 198
13,Cc1nnc(-c2nnc(S)o2)o1,150 to 151
14,CCn1ncnc1COc1nn2c(-c3ccc(F)cc3F)nncc2c1C(C)(C)C,145
15,FC(F)c1nc2ccccc2n1-c1nc(Oc2ccccc2)nc(N2CCOCC2)n1,228 to 231
16,CCCCCN1C(=O)C2(COc3cc4c(cc32)OCO4)c2c(C#N)cccc21 (stereo unspecified),128 to 129
17,COc1ccc(-c2cnn3cnnc3n2)cc1,282 to 284
18,CC(O)(C(=O)Nc1ccc(Cl)cc1)c1ccc(F)cc1Cl (stereo unspecified),167
19,CCc1cccc(-c2ccc(S(=O)(=O)N3c4ccccc4CC3C(=O)O)cc2)c1 (stereo unspecified),70 to 72
20,COc1cc(C=CC#N)cc(OC)c1,126
21,COc1cc(N(C)C)ccc1C=Nc1cc(Cl)c(N=CN(C)C)c(Cl)c1,137 to 139
22,CCC(CC)Oc1cc(C)nc(Nc2c(C)cc(C)cc2C)c1N,73 to 75
23,COc1cc(OC(C)(C)C(=O)O)c(-c2cccs2)cc1C=O,183 to 184
24,CN(C)CCNC(=O)Cc1ccc2ccn(C3CCN(CCc4ccc(F)cc4)CC3)c2c1,112 to 113
25,O=C(O)Cc1ccc2[nH]cc(CCNC(=O)OCc3ccccc3)c2c1,116 to 117
26,O=C1SCCN1Cc1ccccc1,50 to 51

row,Structure (SMILES),melting point [°C]
1,CC(C)c1cccc2c1OC(C(F)(F)F)C(C(=O)O)=C2 (stereo unspecified),210 to 212
2,Cn1c2c3ccccc3nc-2cc2ccccc21,178 to 180
3,CCn1cc(C(=O)NCc2ccc(Cl)cc2)c(=O)c2cc(CCl)oc21,192 to 193
4,COc1cc(OC)cc(N2CCN(C(=S)Nc3cc(C)c(C)cc3OC)CC2)c1,128 to 129
5,Clc1ccc2c(c1)C(c1ccccc1)=NCc1c[nH]cc1-2,203 to 206
6,COc1cc2c(=O)n(CCOCCO)c3c4cc5c(cc4ncc3c2cc1OC)OCO5,235
7,O=C1C(CCO)Oc2ccccc2N1Cc1cc(Cl)cc(Cl)c1 (stereo unspecified),104 to 106
8,NS(=O)(=O)NC[C@H]1COc2ccc(Cl)cc2O1,118 to 119
9,CCOC(=O)C1Cc2ccc(NC)cc2NC1=O (stereo unspecified),171 to 172
10,O=C1[C@H]2CCC[C@H]2N(C(=O)CCCCl)c2ccccc2N1Cc1ccccc1 (relative stereo),169 to 170
11,CCOC(COc1ccc(Cl)c2cccnc12)OCC,51 to 53
12,CCOC(=O)C(C(=O)C(C)C)C(CC(=O)C(C)(C)C)c1ccc(F)cc1 (stereo unspecified),80 to 89
13,CC(=O)SCc1ccc(C#Cc2ccc(C=O)cc2)cc1,128 to 129
14,C=C(C)COc1cc(C)c2c(c1C)CC(C)(C)N2C=O,83 to 95
15,O=C(NN=C1c2ccc(F)cc2CCC1c1ccccc1)Nc1ccc(C(F)(F)F)cc1 (stereo unspecified),158 to 160
16,CCOC(=O)C(=O)c1cn(CC)c2cc(-c3ccc(C(F)(F)F)cc3)ccc12,139 to 141
17,Cc1c(-c2ccc(=O)n(C)c2)cccc1[N+](=O)[O-],157 to 159
18,CC(=O)c1ccc(Nc2c3ccccc3nc3occ(Cl)c23)cc1,174 to 176
19,N#Cc1ccsc1N=Cc1cccs1,58 to 60
20,CC(C)c1nc2c(c(-c3ccc(F)cc3)c1C(C)O)CCC2(C)C (stereo unspecified),90 to 92
21,COc1nnc(Cl)c2c1CCCC2,117 to 119
22,O=c1[nH]c2cc(Cl)ccc2n1C1CCN(Cc2cccc(-c3ccc(Cl)cc3)n2)CC1,203 to 205
23,COc1ccc(CN(CCN(C)CCCCCCNC(=NCCCOc2cccc(CN3CCCCC3)c2)NC#N)c2ccccn2)cc1,79
24,CC(=NO)C(C)(C)NCC(CNC(C)(C)C(C)=NO)CC(O)Cn1ccnc1[N+](=O)[O-] (stereo unspecified),185 to 187
25,COc1ccc(S(=O)(=O)C(CCCCOc2ccccc2)(Cc2cccnc2)C(=O)NO)cc1 (stereo unspecified),68
26,CS(=O)(=O)c1ccc(-c2cc(C(=O)c3ccc(Cl)cc3)sc2N2CCOCC2)cc1,169

row,Structure (SMILES),melting point [°C]
1,O=C1C(=C2C=C(c3ccccc3)S(=O)(=O)C(c3ccccc3)=C2)C(=O)c2ccccc21,235 to 236
2,CCN1CCC2(c3cccc(O)c3)CC(Cc3ccccc3)=CCC2C1 (stereo unspecified),160 to 162
3,Cc1cc(N)c(Cl)c(N)c1,114 to 116
4,N#Cc1ccccc1OC[C@@H](O)CNCCOc1ccc2oc(-c3ccon3)cc2c1,94 to 95
5,CC(C)(C)c1ccc(N2CCOCC2)c(NC(=O)C(F)(F)F)c1,89 to 90
6,COC(=O)C1=C(C=O)NC(C)=C(C(=O)OCC(C)(C)C)C1c1ccccc1C#N (stereo unspecified),141 to 143
7,CC(C)(C)OC(=O)CON=C(C(=O)O)c1ccco1,105 to 106
8,O=C(O)COc1ccc(SCc2cccc(OCc3ccc(Cl)c(C(F)(F)F)c3)c2)c2c1CCC2,121 to 122
9,NC(=O)c1cc(-c2ccc(OC(F)(F)F)cc2)c2c3c(ccc2c1)OCO3,188 to 190
10,NC(=O)Cc1cc(Oc2ccc3c(ccn3C(=O)Nc3cc(N4CCOCC4)cc(C(F)(F)F)c3)c2)ncn1,144 to 146
11,CC(=O)NC=Cc1ccc(OC(C)=O)cc1,165 to 166
12,Cc1ncccc1Oc1ccc(NC(=O)NCCc2ccccc2)cn1,136 to 138
13,COc1cc(Oc2cccc(C)n2)c(C=CC(=O)c2ccc(S(N)(=O)=O)cc2)cc1-c1cccs1,164 to 165
14,CCOC(=O)C(=Cc1cccc([N+](=O)[O-])c1)C(=O)C(Cl)(Cl)Cl,106 to 107
15,Cc1cc(Cl)c2[nH]nc(C)c2n1,176 to 178
16,CC(C)(C)OC(=O)Nc1cc(CC#N)c(I)cc1[N+](=O)[O-],124 to 126
17,NC12CC3CC(C1)CC(O)(C3)C2,260 to 264
18,C1=C(CCc2ccccc2)CCN(Cc2c[nH]c3ccccc23)C1,138 to 140
19,CCCCOP(=O)(CCCCC1(C(=O)NCCC)c2ccccc2-c2ncccc21)OCCCC (stereo unspecified),93.5 to 96
20,O=S(=O)(c1ccc(Cn2cnnn2)cc1)C1CCN(CCc2ccc(F)cc2F)CC1,168 to 169
21,COC(=O)C(O)C(NC(=O)OC(C)(C)C)C1CC1 (stereo unspecified),93
22,COC(C(=O)O)C(=O)Oc1cccc(-c2cn3c(n2)sc2ccccc23)c1 (stereo unspecified),110 to 113
23,C[C@H](c1ccccc1)n1c(O)nc2c(Cl)nc3ccccc3c21,227 to 229
